From patent EP1592418B1, “USE OF ENDOCANNABINOID-LIKE COMPOUNDS FOR TREATING CNS DEGENERATIVE DISORDERS” (Research & Innovation S.p.A., priority 2003, dated 2004)

Legend:
[1] = Solubility (physico-chemical properties); assay type: physicochemical; settings: for solubility: organic solvent or mixture, read-out: solubility in organic solvents
Jurkat cells = experiment: Evaluation of cellular viability by MTT assay; assay type: cell-based, human; settings: for Growth inhibition (% of control): 10 µM, incubated 18-24 hr, MTT, absorbance 570 nm
Procedure: Jurkat, an acute T-lymphoblastic leukemia cell line generated from a person, have been used. Cell culture have been cultured in RPMI-1640 culture medium containing 10% FBS.
Jurkat cells were cultured at 1x10^5 cells/ml in RPMI 1640 medium supplemented with 10% fetal bovine serum (FBS), 2mM L-glutamine and 100 U/ml penicillin + 100 ug/ml streptomycin.
To detect drug effect in vitro, MTT [3-(4,5-dimethylthiazol-2-yl)-2,5-diphenyltetrazolium bromide] assay was used as described (Carmichael J et al., 1987 Cancer Res. 47, 936-42). Briefly, cells were seeded in triplicate on 96-well culture plates at a density of 20000 cells/well. The drugs were added in order to have the final concentration of 10 µM (1 µl of a solution of 10mM in DMSO) and incubated for 18-24 hr. Then MTT (0.5 mg/ml) was added to each well, and plates were incubated for an additional 1 to 3 hr in the dark at 37 °C. After this time the MTT solution was aspirated from the wells and 0.1 ml of DMSO was added. The plates were allowed to stand for 10 min, and then the absorbance was determined in a SpectraCount (Packard) microplate reader at 570 nm. The drug effect was determined by comparing absorbances of treated and untreated cells.

[2] = test system: reverse passive Arthus reaction, mouse ear pinna; experiment: Reverse passive Arthus reaction (RPA) in the mouse ear pinna: oedema and Evans blue extravasation; assay type: in vivo; settings: for Extravasation / Riduction % (extravasation): 10 mg/Kg i.p.; for Extravasation: Evans blue density at 620 nm in ear homogenate supernatant, Vehicle 0,90±0,06, Naïve 0,04±0,01; for Oedema (mg): 10 mg/Kg intraperitoneally 1 hour before induction, weight increase of 8 mm punch vs contralateral ear, three hours after antigen, Vehicle 49,8 ± 1,2, Naive 23,7 ± 1,2; for Riduction % (extravasation): reduction of extravasation versus Vehicle (0)
Text: The Arthus model (RPA) is a model of immune-complex mediated tissue damage that involves the passive subcutaneous introduction of an antibody and the systemic administration of the corresponding antigen. This inflammatory model has been used to test the in vivo activity of the synthesised molecules.
The reverse passive Arthus reaction is induced, in the mouse ear pinna, by the subcutaneous injection of an excess of IgG anti human albumin followed by i.v. adiministration of the corresponding Ag (i.e. human albumin) together with Evans blue, 2 mg for each mouse, for the evaluation of extravasation.
The tested molecules were solubilised in DMSO, cremophor and PBS in a ratio of 1:1:18 and administered usually by intraperitonelly at the dosage of 10 mg/Kg 1 hour before the induction of anafilactic reaction. The animals were sacrificed 3 hours after the molecule administration.
The oedema and the extravasations are evaluated tree hours after the i.v. administration of the antigen. The oedema is evaluated as the increase of weight of lesioned ear area dissected by a 8 mm biopsy punch as compared to the contralateral unlesioned auricular tissues. The extravasation is measured determining the Evans blue density at 620 nm in the supernatants deriving from ear homogenates following centrifugation at 10000 x g for 20 min.

Compound | solubility ([1]; in DMSO and in chloroform) | solubility in water [1] | Growth inhibition (% of control) (Jurkat cells) | Extravasation ([2]; mouse ear) | Oedema (mg) ([2]; mouse ear) | Riduction % (extravasation) ([2]; mouse ear) | other results
CCCCCC/C=C\CCCCCCCC(=O)NC(C)C [Example 3, N-Isopropyl-palmitoleyl amide] | > 10000 µg/mL | scarcely soluble | 60.5 % of control |  |  |  | 
CCCCCCCC/C=C\CCCCCCCC(=O)NC(C)C [Example 5, N-Isopropyl-oleyl amide] | > 10000 µg/mL | scarcely soluble | 66.6 % of control |  |  |  | 
CCCCCCCCCCCCCCCCCCCC(=O)NC(C)C [Example 6, N-Isopropyl-arachidyl amide] | > 10000 µg/mL | scarcely soluble | 41.0 % of control |  |  |  | 
CCCCCCCCCCCCCCCCCC(=O)NCCc1ccccc1 [Example 7, N-β-phenylethyl-stearoyl amide] | > 10000 µg/mL | scarcely soluble | 47.3 % of control |  |  |  | 
CCCCCCCCCCCCCCCC(=O)OCCC [Example 8, n-propyl-palmitate] | > 10000 µg/mL | scarcely soluble |  |  |  |  | 
CCCCCCCCCCCCCCCCCC(=O)OCCC [Example 9, n-propyl-stearate] | > 10000 µg/mL | scarcely soluble |  |  |  |  | 
CCCCCCCCCCCCCCCC(=O)OC(C)C [Example 10, iso-propyl-palmitate] | > 10000 µg/mL | scarcely soluble |  |  |  |  | 
CCCCCCCCCCCCCCCCCC(=O)OC(C)C [Example 11, iso-propyl-stearate] | > 10000 µg/mL | scarcely soluble |  |  |  |  | 
CCCCCCCCCCCCCCCCCCNC(C)=O [Example 13, N-octadecyl-acetyl-amide] | > 10000 µg/mL | scarcely soluble | 67.2 % of control | 0,74±0,07 | 43,3 ± 0.6 mg | 17.2% | 
CCCCCCCCCCCCCCCC(=O)NC1CCCC1 [Example 14, N-cyclopentyl-palmitoyl amide] |  | scarcely soluble | 52.6 % of control |  |  |  | solubility in organic solvents ([1]; in DMSO and in chloroform): >10 mg/ml in DMSO and in chloroform; Extravasation ([2]; mouse ear, 10 mg/kg): 0,52±0,06; Oedema (mg) ([2]; mouse ear, 10 mg/kg): 39,5 ± 0.8 mg; Riduction % (extravasation) ([2]; mouse ear, 10 mg/kg): 32.3%
CCCCCCCCCCCCCCCCCC(=O)NC1CCCCC1 [Example 16, N-cyclohexyl-stearoyl amide] | > 10000 µg/mL | scarcely soluble | 18.2 % of control | 0,66±0,09 | 48,2 ± 1.8 mg | 26,7% | 
CCCCCCCCCCCCCCCC(=O)NCCC [Example 17, N-propyl-palmitoyl amide] | > 10000 µg/mL | scarcely soluble | 21.4 % of control | 0,52±0,12 | 32,3 ± 2.7 mg | 32.3% | 
CCCCCCCCCCCCCCCCCC(=O)NCCC [Example 18, N- propyl-stearoyl amide] | > 10000 µg/mL | scarcely soluble | 17.3 % of control | 0,54±0,03 | 33,3 ± 0.2 mg | 40.0% | 
CCCCCCCCCCCCCCCC(=O)NC1CC1 [Example 19, N-cyclopropyl-palmitoyl amide] | > 10000 µg/mL | scarcely soluble | 56.2 % of control | 0,32±0,02 | 31,8 ± 3.6 mg | 64.6% | 
CCCCCCCCCCCCCCCCCC(=O)NC1CC1 [Example 20, N-cyclopropyl-stearoyl amide] | > 10000 µg/mL | scarcely soluble | 64.2 % of control | 0,35±0,06 | 33,1 ± 0.9 mg | 61.2% | 
CCCCCCCCCCCCCCCC(=O)NCCCC [Example 23, N-butyl-palmitoyl amide] | > 10000 µg/mL | scarcely soluble | 36.0 % of control | 0,59±0,08 | 35,2 ± 1.7 mg | 34.5% | 

Compound | solubility ([1]; in DMSO and in chloroform) | solubility in water [1] | Growth inhibition (% of control) (Jurkat cells) | Extravasation ([2]; mouse ear) | Oedema (mg) ([2]; mouse ear) | Riduction % (extravasation) ([2]; mouse ear) | other results
CCCCCCCCCCCCCCCCCC(=O)NCCCC [Example 24, N- butyl-stearoyl amide] | > 10000 µg/mL | scarcely soluble | 32.1 % of control | 0,55±0,07 | 33,6 ± 1.2 mg | 38.9% | 
CCCCCCCCCCCCCCCCCC(=O)NCC(C)C [Example 26, N-isobutyl-stearoyl amide] | > 10000 µg/mL | scarcely soluble |  | 0,81±0,05 | 40,3 ± 0.7 mg | 10.0% | 
CCCCCCCCCCCCCCCCCC(=O)NC1CCC1 [Example 28, N-cyclobutyl-stearoyl amide] | > 10000 µg/mL | scarcely soluble | 31.6 % of control | 0,31±0,12 | 40,6 ± 2.6 mg | 65.6% | 
CCCCCCCCCCCCCCCC(=O)OCCCC [Example 29, n-butyl-palmitate] | > 10000 µg/mL | scarcely soluble |  |  |  |  | 
CCCCCCCCCCCCCCCCCC(=O)OCCCC [Example 30, n-butyl-stearate] | > 10000 µg/mL | scarcely soluble |  |  |  |  | 
CCCCCCCCCCCCCCCC(=O)OCC(C)C [Example 31, iso-butyl-palmitate] | > 10000 µg/mL | scarcely soluble |  |  |  |  | 
CCCCCCCCCCCCCCCCCC(=O)OCC(C)C [Example 32, iso-butyl-stearate] | > 10000 µg/mL | scarcely soluble |  |  |  |  | 
CCCCCCCCCCCCCCCC(=O)NCCCCC [Example 33, N-pentyl-palmitoyl amide] | > 10000 µg/mL | scarcely soluble | 33.3 % of control | 0,72±0,06 | 43,9 ± 2.4 mg | 20.0% | 
CCCCCCCCCCCCCCCC(=O)NC1CCCC1 [Example 37, N-cyclopentyl-palmitoyl amide] | > 10000 µg/mL | scarcely soluble | 32.1 % of control |  |  |  | Extravasation ([2]; mouse ear, 10 mg/kg): 0,64±0,13; Oedema (mg) ([2]; mouse ear, 10 mg/kg): 36,2 ± 0.9 mg; Riduction % (extravasation) ([2]; mouse ear, 10 mg/kg): 52.5%
CCCCCCCCCCCCCCCC(=O)OCCCCC [Example 39, n-pentyl-palmitate] | > 10000 µg/mL | scarcely soluble |  |  |  |  | 
CCCCCCCCCCCCCCCCCC(=O)OCCCCC [Example 40, n-pentyl-stearate] | > 10000 µg/mL | scarcely soluble |  |  |  |  | 
CCCCCCCCCCCCCCCC(=O)OC1CCCC1 [Example 41, cyclopentyl-palmitate] | > 10000 µg/mL | scarcely soluble |  |  |  |  | 
CCCC(C)(C)c1ccc2c(c1)OC(C)(C)[C@@H]1CC=C(C)C[C@@H]21 [JWH 133, reference compound] |  |  | 2.0 % of control |  |  |  | cellular death in vitro (in words) (Jurkat cells): unable; reduction of oedema in vivo (in words) ([2]; mouse ear): unable; reduction of extravasation in vivo (in words) ([2]; mouse ear, i.p.): unable
CCCCCCCC/C=C\CCCCCCCC(N)=O [Oleylamide] |  |  | 22.1 % of control | 0,65±0,12 | 43,5 ± 2.6 mg | 21.8% | 
SR144528 [reference compound] |  |  |  |  |  |  | antagonism of the anti-inflammatory effect of cannabinoid, endocannabinoid or molecules object of the invention (in words) ([2]; CB2 selective antagonist): did not antagonize
